IC50 data for 26 molecules are collected here from patent US20190127366A1 (LifeSci Pharmaceuticals, Inc., priority 2015, published 2019).

T1 sequence (P00746 26-253): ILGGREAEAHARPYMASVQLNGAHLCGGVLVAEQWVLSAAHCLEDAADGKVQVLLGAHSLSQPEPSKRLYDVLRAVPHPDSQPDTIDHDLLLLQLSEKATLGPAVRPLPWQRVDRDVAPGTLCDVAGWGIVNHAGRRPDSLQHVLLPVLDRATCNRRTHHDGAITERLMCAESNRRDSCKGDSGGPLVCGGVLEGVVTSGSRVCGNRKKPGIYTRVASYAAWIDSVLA

The assay addresses T1, human complement factor D (Homo sapiens, UniProt P00746).
T1 construct: purchased R&D Systems 1824-SE
The assay can be described thus: In vitro enzyme inhibition (Z-Lys-SBzl/DTNB absorbance assay). It counts as biochemical. To be noted: Complement Factor D (R&D Systems), substrate Z-Lys-SBzl, A405 nm; read-out: CFD IC50. An outline of the steps:
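Factor D (6.25 ng/μL before addition) preincubated 5 min RT with compound (8 points from 50 μM, 6-fold, 0.5% DMSO final) in 50 mM Tris/HCl pH 7.5, 1 M NaCl, then Z-Lys-SBzl/DTNB added (200 μM each before addition). A405 read kinetically every 30 s for 60 min; IC50 from variable-slope fit, controls with and without enzyme.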
For the molecule `COC(=O)c1cc(Cl)nc(NC(=O)[C@@H]2[C@H]3CC[C@H](C3)N2C(=O)Cn2nc(C(N)=O)c3ccccc32)c1` [Example 103, methyl 2-((1R,3S,4S)-2-(2-(3-carbamoyl-1H-indazol-1-yl)acetyl)-2-azabicyclo[2.2.1]heptane-3-carboxamido)-6-chloroisonicotinate], the IC50 lay within 100 to 1000 nM.

On to `NC(=O)c1nn(CC(=O)N2[C@@H]3CC[C@@H](C3)[C@H]2C(=O)Nc2cc(CO)cc(Cl)n2)c2ccccc12` [Example 105, 1-(2-((1R,3S,4S)-3-((6-chloro-4-(hydroxymethyl)pyridin-2-yl)carbamoyl)-2-azabicyclo[2.2.1]heptan-2-yl)-2-oxoethyl)-1H-indazole-3-carboxamide], for which the IC50 was 100 to 1000 nM. Take `NC(=O)c1cc(Cl)nc(NC(=O)[C@@H]2[C@H]3CC[C@H](C3)N2C(=O)Cn2nc(C(N)=O)c3ccccc32)c1` [Example 106, 1-(2-((1R,3S,4S)-3-((4-carbamoyl-6-chloropyridin-2-yl)carbamoyl)-2-azabicyclo[2.2.1]heptan-2-yl)-2-oxoethyl)-1H-indazole-3-carboxamide]: the IC50 lay within 100 to 1000 nM. Take `COC(=O)c1ccc(NC(=O)[C@@H]2[C@H]3CC[C@H](C3)N2C(=O)Cn2nc(C(N)=O)c3ccccc32)nc1Cl` [Example 107, Methyl 6-((1R,3S,4S)-2-(2-(3-carbamoyl-1H-indazol-1-yl)acetyl)-2-azabicyclo[2.2.1]heptane-3-carboxamido)-2-chloronicotinate]: the IC50 is 1000 to 10000 nM. For the molecule `NC(=O)c1nn(CC(=O)N2[C@@H]3CC[C@@H](C3)[C@H]2C(=O)Nc2ccc(CO)c(Cl)n2)c2ccccc12` [Example 108, 1-(2-((1R,3S,4S)-3-((6-chloro-5-(hydroxymethyl)pyridin-2-yl)carbamoyl)-2-azabicyclo[2.2.1]heptan-2-yl)-2-oxoethyl)-1H-indazole-3-carboxamide], the 50% inhibitory concentration (IC50) was in the range of 1000 to 10000 nM.

On to `NC(=O)c1nn(CC(=O)N2[C@@H]3CC[C@@H](C3)[C@H]2C(=O)NCc2cc(Br)cc(Cl)c2F)c2ccccc12` [Example 109, 1-(2-((1R,3S,4S)-3-((5-bromo-3-chloro-2-fluorobenzyl)carbamoyl)-2-azabicyclo[2.2.1]heptan-2-yl)-2-oxoethyl)-1H-indazole-3-carboxamide], for which the concentration for half-maximal inhibition (IC50) is 100 to 1000 nM. With `COC(=O)c1cc(Cl)c(F)c(CNC(=O)[C@@H]2[C@H]3CC[C@H](C3)N2C(=O)Cn2nc(C(N)=O)c3ccccc32)c1` [Example 110, methyl 3-(((1R,3S,4S)-2-(2-(3-carbamoyl-1H-indazol-1-yl)acetyl)-2-azabicyclo[2.2.1]heptane-3-carboxamido)methyl)-5-chloro-4-fluorobenzoate], the IC50 is 1000 to 10000 nM. Turning to `NC(=O)c1nn(CC(=O)N2[C@@H]3CC[C@@H](C3)[C@H]2C(=O)NCc2cc(C(=O)O)cc(Cl)c2F)c2ccccc12` [Example 111, 3-(((1R,3S,4S)-2-(2-(3-carbamoyl-1H-indazol-1-yl)acetyl)-2-azabicyclo[2.2.1]heptane-3-carboxamido)methyl)-5-chloro-4-fluorobenzoic acid], the IC50 fell in the range of 100 to 1000 nM. For the molecule `NC(=O)c1cc(Cl)c(F)c(CNC(=O)[C@@H]2[C@H]3CC[C@H](C3)N2C(=O)Cn2nc(C(N)=O)c3ccccc32)c1` [Example 112, 1-(2-((1R,3S,4S)-3-((5-carbamoyl-3-chloro-2-fluorobenzyl)carbamoyl)-2-azabicyclo[2.2.1]heptan-2-yl)-2-oxoethyl)-1H-indazole-3-carboxamide], the IC50 fell in the range of 1000 to 10000 nM. As for `N#Cc1cc(Cl)c(F)c(CNC(=O)[C@@H]2[C@H]3CC[C@H](C3)N2C(=O)Cn2nc(C(N)=O)c3ccccc32)c1` [Example 113, 1-(2-((1R,3S,4S)-3-((3-chloro-5-cyano-2-fluorobenzyl)carbamoyl)-2-azabicyclo[2.2.1]heptan-2-yl)-2-oxoethyl)-1H-indazole-3-carboxamide], the IC50 lay in the range of 1000 to 10000 nM. As for `NC(=O)c1nn(CC(=O)N2[C@@H]3CC[C@@H](C3)[C@H]2C(=O)NCc2cc(CO)cc(Cl)c2F)c2ccccc12` [Example 114, 1-(2-((1R,3S,4S)-3-((3-chloro-2-fluoro-5-(hydroxymethyl)benzyl)carbamoyl)-2-azabicyclo[2.2.1]heptan-2-yl)-2-oxoethyl)-1H-indazole-3-carboxamide], the 50% inhibitory concentration (IC50) was in the range of 1000 to 10000 nM. Regarding `NC(=O)c1nn(CC(=O)N2[C@@H]3CC[C@@H](C3)[C@H]2C(=O)NCc2c(Br)ccc(Cl)c2F)c2ccccc12` [Example 115, 1-(2-((1R,3S,4S)-3-((6-bromo-3-chloro-2-fluorobenzyl)carbamoyl)-2-azabicyclo[2.2.1]heptan-2-yl)-2-oxoethyl)-1H-indazole-3-carboxamide], the half-maximal inhibitory concentration (IC50) is 1000 to 10000 nM. With `COC(=O)c1ccc(Cl)c(F)c1CNC(=O)[C@@H]1[C@H]2CC[C@H](C2)N1C(=O)Cn1nc(C(N)=O)c2ccccc21` [Example 116, methyl 2-(((1R,3S,4S)-2-(2-(3-carbamoyl-1H-indazol-1-yl)acetyl)-2-azabicyclo[2.2.1]heptane-3-carboxamido)methyl)-4-chloro-3-fluorobenzoate], the half-maximal inhibitory concentration (IC50) lay in the range of 1000 to 10000 nM. `NC(=O)c1nn(CC(=O)N2[C@@H]3CC[C@@H](C3)[C@H]2C(=O)NCc2c(C(=O)O)ccc(Cl)c2F)c2ccccc12` [Example 117, 2-(((1R,3S,4S)-2-(2-(3-carbamoyl-1H-indazol-1-yl)acetyl)-2-azabicyclo[2.2.1]heptane-3-carboxamido)methyl)-4-chloro-3-fluorobenzoic acid]: the IC50 is 1000 to 10000 nM.

With `NC(=O)c1ccc(Cl)c(F)c1CNC(=O)[C@@H]1[C@H]2CC[C@H](C2)N1C(=O)Cn1nc(C(N)=O)c2ccccc21` [Example 118, 1-(2-((1R,3S,4S)-3-((6-carbamoyl-3-chloro-2-fluorobenzyl)carbamoyl)-2-azabicyclo[2.2.1]heptan-2-yl)-2-oxoethyl)-1H-indazole-3-carboxamide], the IC50 is 1000 to 10000 nM.

`N#Cc1ccc(Cl)c(F)c1CNC(=O)[C@@H]1[C@H]2CC[C@H](C2)N1C(=O)Cn1nc(C(N)=O)c2ccccc21` [Example 119, 1-(2-((1R,3S,4S)-3-((3-chloro-6-cyano-2-fluorobenzyl)carbamoyl)-2-azabicyclo[2.2.1]heptan-2-yl)-2-oxoethyl)-1H-indazole-3-carboxamide]: the IC50 is 1000 to 10000 nM. `NC(=O)c1nn(CC(=O)N2[C@@H]3CC[C@@H](C3)[C@H]2C(=O)NCc2c(CO)ccc(Cl)c2F)c2ccccc12` [Example 120, 1-(2-((1R,3S,4S)-3-((3-chloro-2-fluoro-6-(hydroxymethyl)benzyl)carbamoyl)-2-azabicyclo[2.2.1]heptan-2-yl)-2-oxoethyl)-1H-indazole-3-carboxamide]: the IC50 was in the range of 1000 to 10000 nM. `NC(=O)c1ccc2c(c1)c(C(N)=O)nn2CC(=O)N1[C@@H]2CC[C@@H](C2)[C@H]1C(=O)Nc1cccc(Cl)n1` [Example 121, 1-(2-((1R,3S,4S)-3-((6-chloropyridin-2-yl)carbamoyl)-2-azabicyclo[2.2.1]heptan-2-yl)-2-oxoethyl)-1H-indazole-3,5-dicarboxamide]: the IC50 lay in the range of 100 to 1000 nM.

For `NC(=O)c1ccc2c(C(N)=O)nn(CC(=O)N3[C@@H]4CC[C@@H](C4)[C@H]3C(=O)Nc3cccc(Cl)n3)c2c1` [Example 124, 1-(2-((1R,3S,4S)-3-((6-chloropyridin-2-yl)carbamoyl)-2-azabicyclo[2.2.1]heptan-2-yl)-2-oxoethyl)-1H-indazole-3,6-dicarboxamide], the IC50 lay in the range of 100 to 1000 nM. With `COC(=O)Cc1ccc2c(C(N)=O)nn(CC(=O)N3[C@@H]4CC[C@@H](C4)[C@H]3C(=O)NCc3cccc(Cl)c3F)c2c1` [Example 126, methyl 2-(3-carbamoyl-1-(2-((1R,3S,4S)-3-((3-chloro-2-fluorobenzyl)carbamoyl)-2-azabicyclo[2.2.1]heptan-2-yl)-2-oxoethyl)-1H-indazol-6-yl)acetate], the IC50 fell in the range of 1000 to 10000 nM. On to `NC(=O)c1nn(CC(=O)N2[C@@H]3CC[C@@H](C3)[C@H]2C(=O)NCc2cccc(Cl)c2F)c2cc(CC(=O)O)ccc12` [Example 127, 2-(3-carbamoyl-1-(2-((1R,3S,4S)-3-((3-chloro-2-fluorobenzyl)carbamoyl)-2-azabicyclo[2.2.1]heptan-2-yl)-2-oxoethyl)-1H-indazol-6-yl)acetic acid], for which the IC50 lay in the range of 1000 to 10000 nM. Under `NC(=O)Cc1ccc2c(C(N)=O)nn(CC(=O)N3[C@@H]4CC[C@@H](C4)[C@H]3C(=O)NCc3cccc(Cl)c3F)c2c1` [Example 128, 6-(2-amino-2-oxoethyl)-1-(2-((1R,3S,4S)-3-((3-chloro-2-fluorobenzyl)carbamoyl)-2-azabicyclo[2.2.1]heptan-2-yl)-2-oxoethyl)-1H-indazole-3-carboxamide] stands 1000 to 10000 nM; under `NC(=O)c1nn(CC(=O)N2[C@@H]3CC[C@@H](C3)[C@H]2C(=O)NCc2cccc(Cl)c2F)c2cc(CCO)ccc12` [Example 129, 1-(2-((1R,3S,4S)-3-((3-chloro-2-fluorobenzyl)carbamoyl)-2-azabicyclo[2.2.1]heptan-2-yl)-2-oxoethyl)-6-(2-hydroxyethyl)-1H-indazole-3-carboxamide], 1000 to 10000 nM; under `COC(=O)Cc1ccc2c(c1)c(C(N)=O)nn2CC(=O)N1[C@@H]2CC[C@@H](C2)[C@H]1C(=O)NCc1cccc(Cl)c1F` [Example 130, methyl 2-(3-carbamoyl-1-(2-((1R,3S,4S)-3-((3-chloro-2-fluorobenzyl)carbamoyl)-2-azabicyclo[2.2.1]heptan-2-yl)-2-oxoethyl)-1H-indazol-5-yl)acetate], 100 to 1000 nM. For the molecule `NC(=O)c1nn(CC(=O)N2[C@@H]3CC[C@@H](C3)[C@H]2C(=O)NCc2cccc(Cl)c2F)c2ccc(CC(=O)O)cc12` [Example 131], the concentration for half-maximal inhibition (IC50) lay in the range of 1000 to 10000 nM. On to `NC(=O)c1nn(CC(=O)N2[C@@H]3CC[C@@H](C3)[C@H]2C(=O)NCc2cccc(Cl)c2F)c2ccc(CCO)cc12` [Example 132], for which the half-maximal inhibitory concentration (IC50) was 1000 to 10000 nM.
